Measurements from ChEMBL document CHEMBL1764984 (J Med Chem, 2011).
≈ marks a conversion by molar mass, not a printed value.

Tests used:
Cytochrome P450 2C9 = Cytochrome P450 2C9 (Homo sapiens, UniProt P11712); assay: Inhibition of human CYP2C9; format: ADME
Cytochrome P450 2C19 = Cytochrome P450 2C19 (Homo sapiens, UniProt P33261); assay: Inhibition of human CYP2C19; format: ADME
[1] = biological target: T1, Mitogen-activated protein kinase 11 (Homo sapiens, UniProt Q15759); assay: Inhibition of P38beta
T1 sequence (Q15759 whole entry): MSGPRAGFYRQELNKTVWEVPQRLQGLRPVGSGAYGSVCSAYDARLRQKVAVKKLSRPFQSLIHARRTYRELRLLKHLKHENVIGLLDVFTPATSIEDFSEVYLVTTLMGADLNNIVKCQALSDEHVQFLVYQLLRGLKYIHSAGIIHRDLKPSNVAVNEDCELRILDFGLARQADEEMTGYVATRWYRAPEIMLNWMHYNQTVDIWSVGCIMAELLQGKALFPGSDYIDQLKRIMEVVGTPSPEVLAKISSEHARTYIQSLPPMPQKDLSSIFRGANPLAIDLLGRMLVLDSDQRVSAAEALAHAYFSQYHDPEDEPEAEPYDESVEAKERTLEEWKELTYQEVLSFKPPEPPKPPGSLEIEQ

[2] = Plasma protein binding in cynomolgus monkey by untrafiltration method; format: ADME, cell-free, Macaca fascicularis; conditions: read-out: PPB (converted)
Rattus norvegicus [3] = assay: Inhibition of LPS-induced TNFalpha production in rat serum at 3 mg/kg, po administered 30 mins before LPS challenge measured after […] by ELISA; format: functional
[4] = AUC (infinity) in cynomolgus monkey at 10 mg/kg, po; format: ADME, organism-based, Macaca fascicularis; parameters: time infinity, dose 10 mg/kg, route oral; conditions: plasma
THP-1 = assay: Inhibition of LPS-induced TNFalpha production in human THP1 cells after 2 hrs by ELISA; format: functional, cell-based; conditions: THP-1, 2 h
[5] = Half life in cynomolgus monkey at 10 mg/kg, po; format: ADME, organism-based, Macaca fascicularis; parameters: dose 10 mg/kg, route oral; conditions: in vivo
Rattus norvegicus [6] = assay: Analgesic activity in po dosed rat inflammatory yeast hyperalgesia model assessed as increase in tolerance to pressure; format: functional, organism-based; conditions: for ED50: po
[7] = Permeability of the compound from apical to basolateral side of human Caco2 cells at 10 uM after 21 days; format: ADME, cell-based; conditions: Caco-2, read-out: permeability
[8] = Oral bioavailability in cynomolgus monkey at 10 mg/kg; format: ADME, organism-based, Macaca fascicularis; conditions: in vivo
Cytochrome P450 3A4 = Cytochrome P450 3A4 (Homo sapiens, UniProt P08684); assay: Inhibition of human CYP3A4; format: ADME
[9] = Tmax in cynomolgus monkey at 10 mg/kg, po; format: ADME, organism-based, Macaca fascicularis; parameters: dose 10 mg/kg, route oral; conditions: in vivo
[10] = biological target: T2, Mitogen-activated protein kinase 10 (Homo sapiens, UniProt P53779); assay: Inhibition of JNK3
Blood = assay: Inhibition of TNFalpha-induced IL1-beta production in human whole blood after 2 to 5 hrs by ELISA; format: functional, tissue-based
[11] = Clearance in cynomolgus monkey at 10 mg/kg, iv; format: ADME, organism-based, Macaca fascicularis; parameters: dose 10 mg/kg, route intravenous; conditions: in vivo
[12] = Permeability of the compound from basolateral to apical side of human Caco2 cells at 10 uM after 21 days; format: ADME, cell-based; conditions: Caco-2, read-out: permeability
Rattus norvegicus [13] = assay: Inhibition of LPS-induced IL-6 production in po dosed rat serum administered 30 mins before LPS challenge measured after […] by ELISA; format: functional, organism-based; conditions: for ED50: po
Rattus norvegicus [14] = assay: Inhibition of LPS-induced TNFalpha production in po dosed rat serum administered 30 mins before LPS challenge measured after […] by ELISA; format: functional, organism-based
Cytochrome P450 1A2 = Cytochrome P450 1A2 (Homo sapiens, UniProt P05177); assay: Inhibition of human CYP1A2; format: ADME
Cytochrome P450 2D6 = Cytochrome P450 2D6 (Homo sapiens, UniProt P10635); assay: Inhibition of human CYP2D6; format: ADME
Sequence of Cytochrome P450 2D6 (P10635 whole entry): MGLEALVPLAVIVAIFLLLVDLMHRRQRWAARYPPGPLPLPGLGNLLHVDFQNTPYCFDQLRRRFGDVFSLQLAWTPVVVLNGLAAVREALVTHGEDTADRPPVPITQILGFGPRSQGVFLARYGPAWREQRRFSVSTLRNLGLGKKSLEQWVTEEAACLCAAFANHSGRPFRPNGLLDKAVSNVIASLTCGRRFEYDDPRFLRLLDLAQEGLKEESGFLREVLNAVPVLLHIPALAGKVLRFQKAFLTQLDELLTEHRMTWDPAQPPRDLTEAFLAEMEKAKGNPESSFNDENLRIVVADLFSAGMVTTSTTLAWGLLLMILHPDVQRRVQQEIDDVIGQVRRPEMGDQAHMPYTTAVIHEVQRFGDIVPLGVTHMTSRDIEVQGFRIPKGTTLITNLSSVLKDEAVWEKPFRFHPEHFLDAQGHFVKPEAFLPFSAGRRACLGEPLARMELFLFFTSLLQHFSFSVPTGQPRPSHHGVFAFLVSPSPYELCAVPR

[15] = biological target: T3, Atypical kinase COQ8A, mitochondrial (Homo sapiens, UniProt Q8NI60); assay: Inhibition of ADCK3
Target sequence in this assay (Q8NI60 whole entry, canonical isoform): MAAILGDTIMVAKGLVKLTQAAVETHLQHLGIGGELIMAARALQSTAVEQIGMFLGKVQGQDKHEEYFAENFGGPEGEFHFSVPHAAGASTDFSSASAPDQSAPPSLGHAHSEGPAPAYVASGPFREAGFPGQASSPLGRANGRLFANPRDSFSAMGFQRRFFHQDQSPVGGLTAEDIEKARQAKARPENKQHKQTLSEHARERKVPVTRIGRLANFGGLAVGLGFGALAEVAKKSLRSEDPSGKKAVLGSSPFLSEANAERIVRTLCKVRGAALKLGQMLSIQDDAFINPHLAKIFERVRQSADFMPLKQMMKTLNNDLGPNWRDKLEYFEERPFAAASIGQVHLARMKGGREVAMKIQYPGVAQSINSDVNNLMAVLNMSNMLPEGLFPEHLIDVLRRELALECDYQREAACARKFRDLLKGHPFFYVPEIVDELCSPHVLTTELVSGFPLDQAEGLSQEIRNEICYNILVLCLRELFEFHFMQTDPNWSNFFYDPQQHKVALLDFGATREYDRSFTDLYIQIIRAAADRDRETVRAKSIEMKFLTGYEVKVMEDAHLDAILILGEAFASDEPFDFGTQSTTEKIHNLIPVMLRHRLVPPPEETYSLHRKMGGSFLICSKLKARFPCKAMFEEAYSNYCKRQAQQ

[16] = biological target: T4, Casein kinase I isoform epsilon (Homo sapiens, UniProt P49674); assay: Inhibition of CSNK1epsilon
[17] = Aqueous solubility of the compound in phosphate buffer at pH 6.5; format: physicochemical
[18] = biological target: Serine/threonine-protein kinase 36 (Homo sapiens, UniProt Q9NRP7); assay: Inhibition of STK36
Sequence of Serine/threonine-protein kinase 36 (Q9NRP7 whole entry, the tested form may be a part): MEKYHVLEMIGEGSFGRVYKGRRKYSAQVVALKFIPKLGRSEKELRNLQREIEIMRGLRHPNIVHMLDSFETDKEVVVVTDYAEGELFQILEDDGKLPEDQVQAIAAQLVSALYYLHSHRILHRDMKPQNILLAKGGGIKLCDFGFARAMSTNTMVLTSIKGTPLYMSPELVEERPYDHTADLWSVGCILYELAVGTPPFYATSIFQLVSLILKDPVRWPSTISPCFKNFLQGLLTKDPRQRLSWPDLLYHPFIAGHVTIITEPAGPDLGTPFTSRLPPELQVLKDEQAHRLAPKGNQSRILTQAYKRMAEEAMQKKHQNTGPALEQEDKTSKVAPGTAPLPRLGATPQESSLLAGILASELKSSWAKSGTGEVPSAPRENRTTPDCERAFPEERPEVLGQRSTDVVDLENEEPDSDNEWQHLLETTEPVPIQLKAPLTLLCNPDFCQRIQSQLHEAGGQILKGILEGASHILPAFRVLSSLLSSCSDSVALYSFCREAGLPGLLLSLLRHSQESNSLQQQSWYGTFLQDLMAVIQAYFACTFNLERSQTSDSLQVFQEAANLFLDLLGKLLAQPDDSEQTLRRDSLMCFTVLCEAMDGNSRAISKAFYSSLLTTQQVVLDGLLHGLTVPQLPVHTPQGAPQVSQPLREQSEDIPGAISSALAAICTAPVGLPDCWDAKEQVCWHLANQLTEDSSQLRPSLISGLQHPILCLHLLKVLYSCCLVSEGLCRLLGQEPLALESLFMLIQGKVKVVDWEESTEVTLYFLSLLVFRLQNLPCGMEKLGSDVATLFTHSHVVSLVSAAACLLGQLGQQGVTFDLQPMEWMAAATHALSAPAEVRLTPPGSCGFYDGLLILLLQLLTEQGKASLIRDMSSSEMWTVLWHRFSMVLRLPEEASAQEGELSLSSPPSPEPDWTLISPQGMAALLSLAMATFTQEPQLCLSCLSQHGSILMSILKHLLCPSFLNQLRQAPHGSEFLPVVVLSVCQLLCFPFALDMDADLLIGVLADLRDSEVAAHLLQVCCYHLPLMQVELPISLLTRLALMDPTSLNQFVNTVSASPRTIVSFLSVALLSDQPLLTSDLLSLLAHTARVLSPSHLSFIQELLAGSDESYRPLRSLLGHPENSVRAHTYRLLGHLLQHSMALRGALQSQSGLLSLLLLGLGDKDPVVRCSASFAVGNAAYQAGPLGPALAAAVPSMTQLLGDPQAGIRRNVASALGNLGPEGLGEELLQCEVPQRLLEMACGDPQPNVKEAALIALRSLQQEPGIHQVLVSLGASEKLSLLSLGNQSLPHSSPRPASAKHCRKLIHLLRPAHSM

[19] = biological target: T5, Epithelial discoidin domain-containing receptor 1 (Homo sapiens, UniProt Q08345); assay: Inhibition of DDR1
T5 sequence (Q08345 whole entry, the tested form may be a part): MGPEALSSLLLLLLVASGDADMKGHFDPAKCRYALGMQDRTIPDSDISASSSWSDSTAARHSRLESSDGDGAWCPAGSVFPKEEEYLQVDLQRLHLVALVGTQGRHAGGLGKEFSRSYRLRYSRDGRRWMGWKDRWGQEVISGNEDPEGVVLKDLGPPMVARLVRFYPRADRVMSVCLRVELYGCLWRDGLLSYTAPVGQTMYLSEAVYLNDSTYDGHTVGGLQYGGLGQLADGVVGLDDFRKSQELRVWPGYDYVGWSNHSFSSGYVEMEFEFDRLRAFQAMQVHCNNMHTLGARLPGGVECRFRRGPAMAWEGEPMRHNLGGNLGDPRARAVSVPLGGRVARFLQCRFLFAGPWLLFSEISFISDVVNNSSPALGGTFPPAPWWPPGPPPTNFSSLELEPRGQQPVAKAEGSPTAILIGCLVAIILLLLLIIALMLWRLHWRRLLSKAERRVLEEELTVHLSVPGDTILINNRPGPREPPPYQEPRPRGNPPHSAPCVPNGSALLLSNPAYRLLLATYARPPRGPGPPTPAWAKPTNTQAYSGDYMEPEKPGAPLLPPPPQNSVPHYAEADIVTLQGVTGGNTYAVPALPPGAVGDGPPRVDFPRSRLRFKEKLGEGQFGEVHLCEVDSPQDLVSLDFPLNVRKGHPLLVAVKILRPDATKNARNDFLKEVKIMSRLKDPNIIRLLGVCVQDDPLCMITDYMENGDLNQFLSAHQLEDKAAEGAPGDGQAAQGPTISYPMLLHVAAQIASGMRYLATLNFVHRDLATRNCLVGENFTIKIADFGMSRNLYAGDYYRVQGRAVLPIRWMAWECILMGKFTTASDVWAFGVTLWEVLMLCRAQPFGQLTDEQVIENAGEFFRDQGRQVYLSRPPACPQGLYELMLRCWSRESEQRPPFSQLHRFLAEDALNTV

[20] = Cmax in cynomolgus monkey at 10 mg/kg, po; format: ADME, organism-based, Macaca fascicularis; parameters: dose 10 mg/kg, route oral; conditions: in vivo
[21] = Volume of distribution at steady state in cynomolgus monkey at 10 mg/kg, iv; format: ADME, organism-based, Macaca fascicularis; parameters: dose 10 mg/kg, route intravenous; conditions: in vivo, read-out: Vdss
[22] = biological target: Serine/threonine-protein kinase NLK (Homo sapiens, UniProt Q9UBE8); assay: Inhibition of NLK
[23] = biological target: T6, Ribosomal protein S6 kinase alpha-4 (Homo sapiens, UniProt O75676); assay: Inhibition of RSK4
Rattus norvegicus [24] = assay: Inhibition of TNF-alpha-induced IL-6 production in po dosed rat plasma administered 30 mins before TNFalpha challenge measured after 2 hrs by ELISA; format: functional, organism-based; conditions: for ED50: po
[25] = Half life in Beagle dog at 5 mg/kg, po; format: ADME, organism-based, Canis lupus familiaris; parameters: dose 5 mg/kg, route oral; conditions: in vivo
[26] = Oral bioavailability in Beagle dog at 5 mg/kg; format: ADME, organism-based, Canis lupus familiaris; conditions: in vivo
[27] = Cmax in Hanover-Wistar rat at 5 mg/kg, po; format: ADME, organism-based; parameters: dose 5 mg/kg, route oral; conditions: in vivo
[28] = biological target: Cyclin-G-associated kinase (Homo sapiens) (UniProt O14976); assay: Inhibition of GAK at 10 uM
[29] = biological target: T2, Mitogen-activated protein kinase 10; conditions: 10 uM
Description: Inhibition of JNK3 at 10 uM

[30] = Plasma protein binding in Hanover-Wistar rat by untrafiltration method; format: ADME, cell-free; conditions: read-out: PPB (converted)
[31] = Oral bioavailability in cynomolgus monkey at 5 mg/kg; format: ADME, organism-based, Macaca fascicularis; conditions: in vivo
[32] = biological target: Mitogen-activated protein kinase 8 (Homo sapiens) (UniProt P45983); assay: Inhibition of JNK1 at 10 uM
[33] = biological target: T3, Atypical kinase COQ8A, mitochondrial; conditions: 10 uM
Description: Inhibition of ADCK3 at 10 uM

[34] = biological target: Cyclin-G-associated kinase (Homo sapiens, UniProt O14976); assay: Inhibition of GAK
[35] = Cmax in Beagle dog at 5 mg/kg, po; format: ADME, organism-based, Canis lupus familiaris; parameters: dose 5 mg/kg, route oral; conditions: in vivo
[36] = Volume of distribution at steady state in Beagle dog at 5 mg/kg, iv; format: ADME, organism-based, Canis lupus familiaris; parameters: dose 5 mg/kg, route intravenous; conditions: in vivo, read-out: Vdss
[37] = biological target: Serine/threonine-protein kinase NLK (Homo sapiens) (UniProt Q9UBE8); assay: Inhibition of NLK at 10 uM
[38] = Half life in cynomolgus monkey at 5 mg/kg, po; format: ADME, organism-based, Macaca fascicularis; parameters: dose 5 mg/kg, route oral; conditions: in vivo
[39] = Tmax in Beagle dog at 5 mg/kg, po; format: ADME, organism-based, Canis lupus familiaris; parameters: dose 5 mg/kg, route oral; conditions: in vivo
[40] = Volume of distribution at steady state in Hanover-Wistar rat at 5 mg/kg, iv; format: ADME, organism-based; parameters: dose 5 mg/kg, route intravenous; conditions: in vivo, read-out: Vdss
[41] = Half life in Hanover-Wistar rat at 5 mg/kg, po; format: ADME, organism-based; parameters: dose 5 mg/kg, route oral; conditions: in vivo
[42] = biological target: T4, Casein kinase I isoform epsilon; conditions: 10 uM
Description: Inhibition of CSNK1epsilon at 10 uM

[43] = Cmax in cynomolgus monkey at 5 mg/kg, po; format: ADME, organism-based, Macaca fascicularis; parameters: dose 5 mg/kg, route oral; conditions: in vivo
[44] = biological target: Serine/threonine-protein kinase 36 (Homo sapiens) (UniProt Q9NRP7); conditions: 10 uM
Sequence of Serine/threonine-protein kinase 36 (Homo sapiens) (Q9NRP7 whole entry): as the sequence (Q9NRP7 whole entry, the tested form may be a part) above
Description: Inhibition of STK36 at 10 uM

[45] = Oral bioavailability in Hanover-Wistar rat at 5 mg/kg; format: ADME, organism-based; conditions: in vivo
[46] = Clearance in Hanover-Wistar rat at 5 mg/kg, iv; format: ADME, organism-based; parameters: dose 5 mg/kg, route intravenous; conditions: in vivo
[47] = Tmax in Hanover-Wistar rat at 5 mg/kg, po; format: ADME, organism-based; parameters: dose 5 mg/kg, route oral; conditions: in vivo
[48] = Clearance in cynomolgus monkey at 5 mg/kg, iv; format: ADME, organism-based, Macaca fascicularis; parameters: dose 5 mg/kg, route intravenous; conditions: in vivo
[49] = AUC (0 to last) in Hanover-Wistar rat at 5 mg/kg, po after 24 hrs; format: ADME, organism-based; parameters: dose 5 mg/kg, route oral, time 0 - last; conditions: plasma
[50] = biological target: T7, Ribosomal protein S6 kinase alpha-3 (Homo sapiens, UniProt P51812); assay: Inhibition of RSK2 at 10 uM
T7 sequence (P51812 whole entry): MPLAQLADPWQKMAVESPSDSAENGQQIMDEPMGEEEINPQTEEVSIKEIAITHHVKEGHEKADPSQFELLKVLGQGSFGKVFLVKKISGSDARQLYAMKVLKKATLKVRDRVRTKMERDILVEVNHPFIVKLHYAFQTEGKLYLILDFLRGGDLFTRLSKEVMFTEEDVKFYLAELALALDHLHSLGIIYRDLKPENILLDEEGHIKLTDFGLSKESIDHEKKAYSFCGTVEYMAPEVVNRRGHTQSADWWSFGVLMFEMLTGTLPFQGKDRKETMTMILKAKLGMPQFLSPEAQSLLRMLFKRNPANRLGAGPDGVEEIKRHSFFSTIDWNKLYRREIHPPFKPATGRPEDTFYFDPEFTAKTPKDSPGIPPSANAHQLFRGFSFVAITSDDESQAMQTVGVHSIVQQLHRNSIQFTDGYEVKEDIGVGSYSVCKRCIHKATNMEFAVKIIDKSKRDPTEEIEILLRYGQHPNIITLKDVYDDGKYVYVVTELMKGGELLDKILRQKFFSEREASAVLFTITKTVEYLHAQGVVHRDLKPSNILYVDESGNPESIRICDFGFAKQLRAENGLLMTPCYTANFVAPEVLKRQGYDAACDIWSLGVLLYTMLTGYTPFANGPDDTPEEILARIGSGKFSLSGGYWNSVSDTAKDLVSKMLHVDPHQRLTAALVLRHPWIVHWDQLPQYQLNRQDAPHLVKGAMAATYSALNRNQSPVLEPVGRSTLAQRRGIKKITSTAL

[51] = Volume of distribution at steady state in cynomolgus monkey at 5 mg/kg, iv; format: ADME, organism-based, Macaca fascicularis; parameters: dose 5 mg/kg, route intravenous; conditions: in vivo, read-out: Vdss
[52] = biological target: T6, Ribosomal protein S6 kinase alpha-4; assay: Inhibition of RSK4 at 10 uM
[53] = Tmax in cynomolgus monkey at 5 mg/kg, po; format: ADME, organism-based, Macaca fascicularis; parameters: dose 5 mg/kg, route oral; conditions: in vivo
[54] = AUC (0 to last) in Beagle dog at 5 mg/kg, po; format: ADME, organism-based, Canis lupus familiaris; parameters: dose 5 mg/kg, route oral, time 0 - last; conditions: plasma
[55] = biological target: Mitogen-activated protein kinase 9 (Homo sapiens) (UniProt P45984); assay: Inhibition of JNK2 at 10 uM
[56] = Clearance in Beagle dog at 5 mg/kg, iv; format: ADME, organism-based, Canis lupus familiaris; parameters: dose 5 mg/kg, route intravenous; conditions: in vivo
[57] = biological target: T1, Mitogen-activated protein kinase 11; assay: Inhibition of P38beta at 10 uM
[58] = AUC (0 to last) in cynomolgus monkey at 5 mg/kg, po after 72 hrs; format: ADME, organism-based, Macaca fascicularis; parameters: dose 5 mg/kg, route oral, time 0 - last; conditions: plasma
[59] = biological target: T7, Ribosomal protein S6 kinase alpha-3; assay: Inhibition of RSK2
[60] = biological target: T5, Epithelial discoidin domain-containing receptor 1; assay: Inhibition of DDR1 at 10 uM

Sequence of Cytochrome P450 2C19 (P33261 whole entry): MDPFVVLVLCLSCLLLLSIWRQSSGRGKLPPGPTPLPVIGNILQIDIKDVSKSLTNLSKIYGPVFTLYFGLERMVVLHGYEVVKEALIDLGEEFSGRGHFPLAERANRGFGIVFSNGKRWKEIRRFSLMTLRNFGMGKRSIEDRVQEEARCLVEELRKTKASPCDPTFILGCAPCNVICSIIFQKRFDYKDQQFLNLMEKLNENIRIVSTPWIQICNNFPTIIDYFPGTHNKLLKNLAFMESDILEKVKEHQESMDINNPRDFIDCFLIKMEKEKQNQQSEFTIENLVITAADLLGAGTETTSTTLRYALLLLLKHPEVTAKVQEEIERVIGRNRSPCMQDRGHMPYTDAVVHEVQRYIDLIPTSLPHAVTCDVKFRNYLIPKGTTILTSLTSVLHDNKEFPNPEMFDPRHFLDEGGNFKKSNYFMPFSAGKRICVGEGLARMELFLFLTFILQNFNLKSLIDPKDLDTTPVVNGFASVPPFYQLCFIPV

Cn1c(=O)c(Oc2ccc(F)cc2F)cc2cnc(NC3CCOCC3)nc21 [R-1487]
IC50 (Cytochrome P450 2C9): > 40000 nM
IC50 (Cytochrome P450 2C19): > 40000 nM
Kd [1]: 29 nM
fraction unbound [2]: 0.046
inhibition in vivo at 3 mg/kg (Rattus norvegicus [3]): 68%
AUC(0-inf) [4]: 29400 ng·h/mL
IC50 (THP-1): 47 nM
half-life [5]: 22.5 h
ED50 (Rattus norvegicus [6]): 5.5 mg/kg
Papp A→B at 10 µM [7]: 33 ×10⁻⁶ cm/s
bioavailability [8]: 51.6%
IC50 (Cytochrome P450 3A4): > 40000 nM
Tmax [9]: 4.67 h
Kd [10]: 3 nM
IC50 (Blood): 170 nM
clearance [11]: 3.05 mL/min/kg
Papp B→A at 10 µM [12]: 23.7 ×10⁻⁶ cm/s
EC50 (Rattus norvegicus [13]): 10 nM
ED50 (Rattus norvegicus [13]): 0.4 mg/kg
EC50 (Rattus norvegicus [14]): 30 nM
ED50 (Rattus norvegicus [14]; po): 0.8 mg/kg
IC50 (Cytochrome P450 1A2): > 40000 nM
IC50 (Cytochrome P450 2D6): > 40000 nM
Kd [15]: 320 nM
Kd [16]: > 1000 nM
solubility [17]: 6 µg/mL (≈ 15.4 µM)
Kd [18]: 330 nM
Kd [19]: 270 nM
Cmax [20]: 1560 ng/mL
Vd [21]: 2.73 L/kg
Kd [22]: 6 nM
Kd [23]: 73 nM
EC50 (Rattus norvegicus [24]): 20 nM
ED50 (Rattus norvegicus [24]): 0.4 mg/kg

Cn1c(=O)c(Oc2ccc(F)cc2F)cc2cnc(NC(CCO)CCO)nc21 [PAMAPIMOD]
half-life [25]: 9.18 h
bioavailability [26]: 78.2%
IC50 (Cytochrome P450 2C9): > 29000 nM
Cmax [27]: 1340 ng/mL
inhibition [28]: > 85%
IC50 (Cytochrome P450 2C19): > 29000 nM
inhibition [29]: > 85%
fraction unbound [30]: 0.171
fraction unbound [2]: 0.146
bioavailability [31]: > 100%
inhibition in vivo at 3 mg/kg (Rattus norvegicus [3]): 77%
inhibition [32]: > 85%
inhibition [33]: > 85%
Activity (Rattus norvegicus [6]): Dose-dependent effect
EC50 (Rattus norvegicus [6]): 4300 nM
ED50 (Rattus norvegicus [6]): 20.4 mg/kg
Kd [34]: > 1000 nM
Cmax [35]: 1380 ng/mL
Vd [36]: 12.7 L/kg
Papp A→B at 10 µM [7]: 2.74 ×10⁻⁶ cm/s
IC50 (Cytochrome P450 3A4): > 29000 nM
inhibition [37]: > 85%
half-life [38]: 13.8 h
Tmax [39]: 0.67 h
Vd [40]: 3.56 L/kg
Papp B→A at 10 µM [12]: 22.6 ×10⁻⁶ cm/s
half-life [41]: 4.04 h
inhibition [42]: > 85%
EC50 (Rattus norvegicus [13]): 50 nM
ED50 (Rattus norvegicus [13]): 0.1 mg/kg
Cmax [43]: 1860 ng/mL
IC50 (Cytochrome P450 1A2): > 29000 nM
IC50 (Cytochrome P450 2D6): > 29000 nM
Kd [15]: > 1000 nM
inhibition [44]: > 85%
solubility [17]: 170 µg/mL (≈ 418 µM)
bioavailability [45]: 80.1%
Kd [18]: > 1000 nM
clearance [46]: 21 mL/min/kg
Tmax [47]: 0.5 h
clearance [48]: 10.8 mL/min/kg
Kd [19]: > 1000 nM
AUC(0-t) at 24 h [49]: 3130 ng·h/mL
inhibition [50]: > 85%
Vd [51]: 20.6 L/kg
inhibition [52]: > 85%
Tmax [53]: 1.5 h
AUC(0-t) [54]: 5220 ng·h/mL
inhibition [55]: > 85%
clearance [56]: 12.5 mL/min/kg
inhibition [57]: > 85%
AUC(0-t) at 72 h [58]: 9410 ng·h/mL
Kd [59]: 300 nM
inhibition [60]: > 85%
EC50 (Rattus norvegicus [24]): 270 nM
ED50 (Rattus norvegicus [24]): 1.1 mg/kg
